This is an account of results in patent US11572590B2, “Methods for evaluating tumor cell spheroids using 3D microfluidic cell culture device” (Dana-Farber Cancer Institute, Inc., priority 2017, dated 2023).

Common to all, as to assay: SelectScreen Kinase Profiling, single point inhibition and IC50 for off-target kinases
Format in all cases: biochemical

The target in test [1] is T1, off-target kinases (Homo sapiens, UniProt Q9NWZ3).
T1 sequence (Q9NWZ3 1-460): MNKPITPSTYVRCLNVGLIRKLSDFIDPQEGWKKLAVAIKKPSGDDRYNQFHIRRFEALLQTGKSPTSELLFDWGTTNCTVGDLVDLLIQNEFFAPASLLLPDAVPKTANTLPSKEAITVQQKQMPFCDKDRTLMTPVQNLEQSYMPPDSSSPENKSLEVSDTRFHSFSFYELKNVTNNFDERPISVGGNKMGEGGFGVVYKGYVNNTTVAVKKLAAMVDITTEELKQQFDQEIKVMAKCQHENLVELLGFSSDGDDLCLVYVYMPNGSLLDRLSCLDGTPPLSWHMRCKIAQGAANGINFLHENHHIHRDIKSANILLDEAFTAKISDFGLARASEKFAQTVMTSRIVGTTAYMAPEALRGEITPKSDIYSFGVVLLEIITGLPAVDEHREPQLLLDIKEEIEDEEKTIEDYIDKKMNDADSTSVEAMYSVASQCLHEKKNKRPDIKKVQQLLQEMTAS
The settings on record: IRAK4, ZLYTE, ATP Km app.

For test [2], the target named is off-target kinases (Homo sapiens, UniProt O00238). The settings on record: BMPR1B (ALK6), LanthaScreen Binding. (In TR-FRET formats the signal depends on donor and acceptor labels being close together.)
Chain of off-target kinases (Homo sapiens, UniProt O00238) (O00238 14-502): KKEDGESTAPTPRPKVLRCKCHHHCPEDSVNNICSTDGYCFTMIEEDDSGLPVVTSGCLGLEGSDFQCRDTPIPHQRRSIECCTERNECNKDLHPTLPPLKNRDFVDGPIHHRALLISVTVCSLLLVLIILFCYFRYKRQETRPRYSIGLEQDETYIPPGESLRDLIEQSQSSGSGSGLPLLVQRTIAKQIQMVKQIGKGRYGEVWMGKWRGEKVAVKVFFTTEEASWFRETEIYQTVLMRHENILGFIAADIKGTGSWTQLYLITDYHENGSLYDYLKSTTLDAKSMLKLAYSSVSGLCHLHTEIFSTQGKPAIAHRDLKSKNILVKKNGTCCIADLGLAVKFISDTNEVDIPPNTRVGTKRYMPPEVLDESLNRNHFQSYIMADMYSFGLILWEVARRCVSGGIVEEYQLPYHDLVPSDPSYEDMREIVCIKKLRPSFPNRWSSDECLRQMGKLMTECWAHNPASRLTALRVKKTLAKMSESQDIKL
The target of test [3] is T2, off-target kinases (Homo sapiens, UniProt Q7L7X3).
T2 sequence (Q7L7X3 1-1001): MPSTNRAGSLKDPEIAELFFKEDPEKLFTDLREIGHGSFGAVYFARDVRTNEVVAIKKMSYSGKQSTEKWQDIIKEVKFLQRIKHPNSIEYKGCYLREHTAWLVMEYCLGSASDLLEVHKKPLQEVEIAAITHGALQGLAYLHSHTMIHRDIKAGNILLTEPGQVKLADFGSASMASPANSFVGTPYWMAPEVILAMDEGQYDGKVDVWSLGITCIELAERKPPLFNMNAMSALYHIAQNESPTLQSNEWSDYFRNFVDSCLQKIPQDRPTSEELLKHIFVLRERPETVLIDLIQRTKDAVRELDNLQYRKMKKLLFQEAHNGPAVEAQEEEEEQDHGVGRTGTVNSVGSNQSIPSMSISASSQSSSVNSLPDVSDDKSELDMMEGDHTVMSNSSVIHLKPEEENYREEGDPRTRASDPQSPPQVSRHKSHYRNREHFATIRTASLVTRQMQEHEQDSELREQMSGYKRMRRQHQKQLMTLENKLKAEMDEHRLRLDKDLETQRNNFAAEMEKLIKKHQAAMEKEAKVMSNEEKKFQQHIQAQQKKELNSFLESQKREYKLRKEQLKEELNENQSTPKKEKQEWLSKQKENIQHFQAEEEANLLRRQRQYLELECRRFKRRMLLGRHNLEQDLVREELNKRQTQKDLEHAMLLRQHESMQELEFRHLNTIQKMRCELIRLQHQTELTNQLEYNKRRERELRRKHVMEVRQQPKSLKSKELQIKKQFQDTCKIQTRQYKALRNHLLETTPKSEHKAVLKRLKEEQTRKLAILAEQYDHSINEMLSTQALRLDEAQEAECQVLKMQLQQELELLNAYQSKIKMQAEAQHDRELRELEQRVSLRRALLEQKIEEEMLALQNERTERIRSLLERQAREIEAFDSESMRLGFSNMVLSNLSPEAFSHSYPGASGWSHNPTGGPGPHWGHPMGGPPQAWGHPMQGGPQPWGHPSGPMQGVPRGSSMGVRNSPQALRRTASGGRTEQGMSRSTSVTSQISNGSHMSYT
The settings on record: TAOK1, LanthaScreen Binding.

The target of test [4] is off-target kinases (Homo sapiens, UniProt P07947). The conditions noted are these: YES1, ATP Km app, ZLYTE.
Chain of off-target kinases (Homo sapiens, UniProt P07947) (P07947 whole entry): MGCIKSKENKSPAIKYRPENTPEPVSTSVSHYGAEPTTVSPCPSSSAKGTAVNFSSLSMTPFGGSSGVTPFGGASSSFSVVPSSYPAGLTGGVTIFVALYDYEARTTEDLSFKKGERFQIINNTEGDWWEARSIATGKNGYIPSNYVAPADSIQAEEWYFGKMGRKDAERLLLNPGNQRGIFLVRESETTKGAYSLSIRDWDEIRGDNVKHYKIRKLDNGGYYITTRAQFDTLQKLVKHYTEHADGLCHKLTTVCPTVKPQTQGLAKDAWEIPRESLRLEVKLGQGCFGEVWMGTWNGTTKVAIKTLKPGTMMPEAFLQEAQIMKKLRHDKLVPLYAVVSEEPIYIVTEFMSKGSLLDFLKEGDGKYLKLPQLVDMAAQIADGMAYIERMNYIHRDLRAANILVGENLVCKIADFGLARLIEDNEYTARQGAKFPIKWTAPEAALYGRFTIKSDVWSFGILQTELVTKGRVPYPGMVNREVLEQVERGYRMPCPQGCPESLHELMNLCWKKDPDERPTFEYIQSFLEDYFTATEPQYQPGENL
Test [5] deals with off-target kinases (Homo sapiens, UniProt P29376). The settings on record: LTK (TYK1), ZLYTE, ATP Km app.
Chain of off-target kinases (Homo sapiens, UniProt P29376) (P29376 17-864): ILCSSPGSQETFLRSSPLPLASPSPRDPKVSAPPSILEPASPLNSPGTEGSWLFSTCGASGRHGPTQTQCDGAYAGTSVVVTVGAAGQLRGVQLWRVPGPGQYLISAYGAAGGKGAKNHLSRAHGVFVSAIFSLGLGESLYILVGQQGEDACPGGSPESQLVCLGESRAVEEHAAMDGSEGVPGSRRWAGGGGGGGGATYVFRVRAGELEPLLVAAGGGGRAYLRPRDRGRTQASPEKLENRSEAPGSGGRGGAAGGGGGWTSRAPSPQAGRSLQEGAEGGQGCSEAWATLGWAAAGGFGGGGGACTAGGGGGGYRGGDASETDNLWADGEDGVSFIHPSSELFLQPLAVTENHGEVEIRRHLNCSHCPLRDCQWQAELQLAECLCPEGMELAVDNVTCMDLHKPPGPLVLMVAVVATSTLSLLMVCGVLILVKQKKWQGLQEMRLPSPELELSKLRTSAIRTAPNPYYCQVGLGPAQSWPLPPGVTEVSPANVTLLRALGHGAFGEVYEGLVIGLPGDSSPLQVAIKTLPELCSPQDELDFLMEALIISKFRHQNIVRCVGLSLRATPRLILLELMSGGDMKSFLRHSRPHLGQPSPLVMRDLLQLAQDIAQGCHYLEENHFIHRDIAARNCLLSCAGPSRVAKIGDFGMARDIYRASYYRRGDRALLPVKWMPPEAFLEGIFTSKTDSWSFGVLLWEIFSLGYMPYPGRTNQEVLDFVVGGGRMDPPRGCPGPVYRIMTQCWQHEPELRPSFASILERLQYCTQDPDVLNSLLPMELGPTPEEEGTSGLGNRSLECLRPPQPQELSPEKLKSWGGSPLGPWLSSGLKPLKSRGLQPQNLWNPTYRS

Like-named read-outs stand apart in the source and are kept apart here.

With `N#Cc1cc(-c2ncnc(Nc3ccc(N4CCN(C5COC5)CC4)cc3)n2)ccc1OC1CCOCC1` [Compound 1, 5-(4-((4-(4-(oxetan-3-yl)piperazin-1-yl)phenyl)amino)-1,3,5-triazin-2-yl)-2-((tetrahydro-2H-pyran-4-yl)oxy)benzonitrile], the inhibition (in general, the drop in the measured response relative to a control, in per cent) in test [1] (read-out: % Inhibition 1) turned out to be 5%; in test [1] (read-out: % Inhibition 2), 8%; in test [1] (read-out: % Inhibition Avg), 6%; in test [2] (read-out: % Inhibition 1), 56%; in test [2] (read-out: % Inhibition 2), 60%; in test [2] (read-out: % Inhibition Avg), 58%. Besides, the inhibition was 45% in test [3] (read-out: % Inhibition 1); 43% in test [3] (read-out: % Inhibition 2); 44% in test [3] (read-out: % Inhibition Avg); 55% in test [4] (read-out: % Inhibition 1); 51% in test [4] (read-out: % Inhibition 2); 53% in test [4] (read-out: % Inhibition Avg). Further, the inhibition in test [5] (read-out: % Inhibition 1) came to 5%; in test [5] (read-out: % Inhibition 2), 7%; in test [5] (read-out: % Inhibition Avg), 6%.
